Among the data in the supplement of paper PMC11003180 are drug sensitivity score values, retold here.

Common to all, as to experiment: drug sensitivity score (DSS) from 5-dose viability curve (DSS (area-based score, 0 = no response)); higher = more sensitive (stronger viability inhibition); extreme values may be limits of the assay
In assay [1] the test system is MDCK p60AmotL2-inducible + doxycycline (p60AmotL2 expressing). The following applies: doxycycline: 10 ng/mL; 72 h. Put shortly: (§1)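 Parental MDCK cells and MDCK cells with a doxycycline-inducible transgene were both grown with doxycycline at 10 ng/mL in the medium before plating, then dispensed at 2000 cells/well into 384-well plates pre-spotted with an oncology library of 528 drugs at five doses (1-10,000 nM). After 72 h at 37 °C, CellTiter-Glo luminescence was recorded and scaled on each plate between vehicle and positive controls. This scaled signal served as the viability readout, and drug sensitivity scores were derived from dose-response curve fits in the Breeze pipeline.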

The subject of assay [2] is MDCK wild-type + doxycycline. The following applies: doxycycline: 10 ng/mL; 72 h. The essentials: as §1
The test system of assay [3] is MDCK wild-type - doxycycline. The following applies: doxycycline: none; 72 h. The essentials: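 Viability of parental MDCK cells cultured without doxycycline was measured by CellTiter-Glo luminescence and scaled per plate between vehicle and positive controls. The cells had been exposed for 72 h to an oncology library of 528 drugs at five doses (1-10,000 nM). Drug sensitivity scores were calculated from dose-response curve fits in the Breeze pipeline.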

Structures are written as SMILES.

`Cc1cn(-c2cc(NC(=O)c3ccc(C)c(Nc4nccc(-c5cccnc5)n4)c3)cc(C(F)(F)F)c2)cn1` [Nilotinib]: the drug sensitivity score in assay [1], in assay [2] and in assay [3] was 0 throughout.
As for `CC1(C)NC(=O)N(c2ccc([N+](=O)[O-])c(C(F)(F)F)c2)C1=O` [Nilutamide], the drug sensitivity score in assay [1], in assay [2] and in assay [3] was 0 throughout.
Turning to `COC(=O)c1ccc2c(c1)NC(=O)/C2=C(\Nc1ccc(N(C)C(=O)CN2CCN(C)CC2)cc1)c1ccccc1` [Nintedanib], the drug sensitivity score is 8.3 in assay [1], 1.3 in assay [2] and 0.3 in assay [3].
As for `NC(=O)c1cccc2cn(-c3ccc([C@@H]4CCCNC4)cc3)nc12` [Niraparib], the drug sensitivity score is 2.1 in assay [1], 2.3 in assay [2] and 0.7 in assay [3].
Taken in the same sequence, the figures for `CC(O)c1cc(C(=O)N[C@@H](C)Cn2ccc(-c3ccc(C#N)c(Cl)c3)n2)n[nH]1` (stereo partly drawn) [ODM-201] were 0, 0 and 0.
Taken in the same sequence, the figures for `CC(=O)c1cnc2ccc(-c3cc(Cl)c(O)c(Cl)c3)nc2c1N[C@H]1CC[C@H](CN(C)C)CC1` [OTS167] were 18.8, 19.4 and 17.2.
Turning to `O=C(c1cc(Cc2n[nH]c(=O)c3ccccc23)ccc1F)N1CCN(C(=O)C2CC2)CC1` [Olaparib], the drug sensitivity score came to 0.2 in assay [1], 0 in assay [2] and 0 in assay [3].
Regarding `C=CC(=O)Nc1cccc(Oc2nc(Nc3ccc(N4CCN(C)CC4)cc3)nc3ccsc23)c1` [Olmutinib], the results for the drug sensitivity score in assay [1], in assay [2] and in assay [3] were 1.5, 0 and 0, respectively.
On to `COC(=O)C[C@](O)(CCCC(C)(C)O)C(=O)O[C@@H]1C(OC)=C[C@]23CCCN2CCc2cc4c(cc2[C@H]13)OCO4` [Omacetaxine], for which the values for the drug sensitivity score in assay [1], in assay [2] and in assay [3] were 33.6, 32.4 and 33.5, respectively.
Taken in the same sequence, the figures for `CC1(C)CC[C@]2(NC(=O)C(C)(F)F)CC[C@]3(C)[C@H](C(=O)C=C4[C@@]5(C)C=C(C#N)C(=O)C(C)(C)[C@@H]5CC[C@]43C)[C@@H]2C1` [Omaveloxolone] were 16.7, 16.3 and 17.
As for `COc1ncc(-c2ccc3nccc(-c4ccnnc4)c3c2)cc1NS(=O)(=O)c1ccc(F)cc1F` [Omipalisib], the drug sensitivity score in assay [1] turned out to be 20.2; in assay [2] it was 14.2; in assay [3], 14.5.
As for `CC(C)c1cc(C(=O)N2Cc3ccc(CN4CCN(C)CC4)cc3C2)c(O)cc1O` [Onalespib], the drug sensitivity score came to 18.8 in assay [1], 18.2 in assay [2] and 16.2 in assay [3].
Taken in the same sequence, the figures for `COC[C@H](NC(=O)c1cnc(C)s1)C(=O)N[C@@H](COC)C(=O)N[C@@H](Cc1ccccc1)C(=O)[C@@]1(C)CO1` [Oprozomib] were 17.4, 17.6 and 17.9.
Regarding `CNC(=O)c1ccc2cc([C@@]3(O)CCn4cncc43)ccc2c1` [Orteronel], the drug sensitivity score in assay [1], in assay [2] and in assay [3] was 0 in each case.
Regarding `C=CC(=O)Nc1cc(Nc2nccc(-c3cn(C)c4ccccc34)n2)c(OC)cc1N(C)CCN(C)C` [Osimertinib], the drug sensitivity score in assay [1] is 10.9; in assay [2], 6.4; in assay [3], 4.6.
The like results for `O=C(O)C(=O)O.[NH-][C@@H]1CCCC[C@H]1[NH-].[Pt+2]` [Oxaliplatin] were, in that order, 12.3, 10.2 and 8.1.
